Measured values: ChEMBL document CHEMBL4308908, “Lamellarin-inspired potent topoisomerase I inhibitors with the unprecedented benzo[g][1]benzopyrano[4,3-b]indol-6(13H)-one scaffold” (Bioorg Med Chem, 2019)
Activity calls are given as the source filed them. The calls are words filed in the database; no cut-off is given here.

Legend:
[1] = system: RXF 631; assay: Antiproliferative activity against human RXF631L cells after 48 hrs by SRB assay; assay type: functional; settings: RXF 631, 48 h
[2] = target: T1, DNA topoisomerase I (Bos taurus) (UniProt F1MN93); assay: Inhibition of calf thymus DNA topoisomerase 1 assessed as reduction in enzyme-mediated relaxation of supercoiled pBR322 plasmid DNA at 10 uM after 30 mins by agarose gel electrophoresis
T1 sequence (whole entry): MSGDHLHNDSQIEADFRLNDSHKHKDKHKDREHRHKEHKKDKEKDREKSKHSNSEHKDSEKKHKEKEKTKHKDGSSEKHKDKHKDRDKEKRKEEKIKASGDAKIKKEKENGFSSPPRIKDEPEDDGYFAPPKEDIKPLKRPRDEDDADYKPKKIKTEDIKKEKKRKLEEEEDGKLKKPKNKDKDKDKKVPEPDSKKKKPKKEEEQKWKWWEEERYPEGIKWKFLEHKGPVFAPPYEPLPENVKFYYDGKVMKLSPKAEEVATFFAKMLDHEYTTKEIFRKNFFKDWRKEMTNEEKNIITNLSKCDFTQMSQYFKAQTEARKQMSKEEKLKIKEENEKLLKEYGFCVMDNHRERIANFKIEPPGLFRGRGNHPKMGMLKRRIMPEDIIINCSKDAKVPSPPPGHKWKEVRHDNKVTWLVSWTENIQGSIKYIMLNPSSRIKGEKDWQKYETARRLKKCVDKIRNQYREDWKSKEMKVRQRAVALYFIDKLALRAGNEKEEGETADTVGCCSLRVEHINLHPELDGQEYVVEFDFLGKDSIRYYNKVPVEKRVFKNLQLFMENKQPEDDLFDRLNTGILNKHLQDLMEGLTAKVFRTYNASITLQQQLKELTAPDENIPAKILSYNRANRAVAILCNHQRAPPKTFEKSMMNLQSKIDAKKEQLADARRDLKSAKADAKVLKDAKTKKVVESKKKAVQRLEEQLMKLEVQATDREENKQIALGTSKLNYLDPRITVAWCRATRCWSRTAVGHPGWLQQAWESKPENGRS

[3] = system: SF-268; assay: Antiproliferative activity against human SF268 cells after 48 hrs by SRB assay; assay type: functional; settings: SF-268, 48 h
[4] = system: KM12; assay: Antiproliferative activity against human KM12 cells after 48 hrs by SRB assay; assay type: functional; settings: KM12, 48 h
[5] = system: U-251; assay: Antiproliferative activity against human U251 cells after 48 hrs by SRB assay; assay type: functional; settings: U-251, 48 h
[6] = system: NCI-H23; assay: Antiproliferative activity against human NCI-H23 cells after 48 hrs by SRB assay; assay type: functional; settings: NCI-H23, 48 h
[7] = system: NCI-H460; assay: Antiproliferative activity against human NCI-H460 cells after 48 hrs by SRB assay; assay type: functional; settings: NCI-H460, 48 h
[8] = system: MKN-1; assay: Antiproliferative activity against human MKN1 cells after 48 hrs by SRB assay; assay type: functional; settings: MKN-1, 48 h
[9] = system: SNB-75; assay: Antiproliferative activity against human SNB75 cells after 48 hrs by SRB assay; assay type: functional; settings: SNB-75, 48 h
[10] = system: SK-OV-3; assay: Antiproliferative activity against human SKOV3 cells after 48 hrs by SRB assay; assay type: functional; settings: SK-OV-3, 48 h
[11] = system: SF-539; assay: Antiproliferative activity against human SF539 cells after 48 hrs by SRB assay; assay type: functional; settings: SF-539, 48 h
[12] = system: MDA-MB-231; assay: Antiproliferative activity against human MDA-MB-231 cells after 48 hrs by SRB assay; assay type: functional; settings: MDA-MB-231, 48 h
[13] = system: MCF7; assay: Antiproliferative activity against human MCF7 cells after 48 hrs by SRB assay; assay type: functional; settings: MCF7, 48 h
[14] = system: OVCAR-3; assay: Antiproliferative activity against human OVCAR3 cells after 48 hrs by SRB assay; assay type: functional; settings: OVCAR-3, 48 h
[15] = system: HT-29; assay: Antiproliferative activity against human HT-29 cells after 48 hrs by SRB assay; assay type: functional; settings: HT-29, 48 h
[16] = system: HCC 2998; assay: Antiproliferative activity against human HCC2998 cells after 48 hrs by SRB assay; assay type: functional; settings: HCC 2998, 48 h
[17] = Antiproliferative activity against human HBC5 cells after 48 hrs by SRB assay; assay type: functional; settings: HBC5, 48 h
[18] = system: St-4; assay: Antiproliferative activity against human St-4 cells after 48 hrs by SRB assay; assay type: functional; settings: St-4, 48 h
[19] = system: DMS-114; assay: Antiproliferative activity against human DMS114 cells after 48 hrs by SRB assay; assay type: functional; settings: DMS-114, 48 h
[20] = system: LOX IMVI; assay: Antiproliferative activity against human LOXIMVI cells after 48 hrs by SRB assay; assay type: functional
[21] = system: ACHN; assay: Antiproliferative activity against human ACHN cells after 48 hrs by SRB assay; assay type: functional
[22] = target: T1, DNA topoisomerase I (Bos taurus); assay: Inhibition of calf thymus DNA topoisomerase 1 assessed as reduction in enzyme-mediated relaxation of supercoiled pBR322 plasmid DNA at 10 uM after 30 mins by ethidium bromide staining-based agarose gel electrophoresis
[23] = system: MKN-45; assay: Antiproliferative activity against human MKN45 cells after 48 hrs by SRB assay; assay type: functional; settings: MKN-45, 48 h
[24] = Antiproliferative activity against human BSY1 cells after 48 hrs by SRB assay; assay type: functional; settings: BSY-1, 48 h
[25] = system: PC-3; assay: Antiproliferative activity against human PC3 cells after 48 hrs by SRB assay; assay type: functional; settings: PC-3, 48 h
[26] = Toxicity in mouse Colon 26 cells implanted BALB/c mouse assessed as induction of body weight loss at 50 mg/kg, iv administered every 2 days for 7 times starting 1 day after tumor implantation and measured daily until day 20; assay type: organism-based; settings: in vivo
[27] = system: DU-145; assay: Antiproliferative activity against human DU145 cells after 48 hrs by SRB assay; assay type: functional; settings: DU-145, 48 h
[28] = system: Colon 26; assay: Antitumor activity against mouse Colon 26 cells implanted in BALB/c mouse at 50 mg/kg, iv administered every 2 days for 7 times starting 1 day after tumor implantation and measured daily until day 20; assay type: functional, organism-based
[29] = system: SNB-78; assay: Antiproliferative activity against human SNB78 cells after 48 hrs by SRB assay; assay type: functional; settings: SNB-78, 48 h
[30] = system: SF-295; assay: Antiproliferative activity against human SF295 cells after 48 hrs by SRB assay; assay type: functional; settings: SF-295, 48 h
[31] = system: HCT-116; assay: Antiproliferative activity against human HCT116 cells after 48 hrs by SRB assay; assay type: functional; settings: HCT-116, 48 h
[32] = system: OVCAR-8; assay: Antiproliferative activity against human OVCAR8 cells after 48 hrs by SRB assay; assay type: functional; settings: OVCAR-8, 48 h
[33] = system: OVCAR-5; assay: Antiproliferative activity against human OVCAR5 cells after 48 hrs by SRB assay; assay type: functional; settings: OVCAR-5, 48 h

inhibition [2]: Active
GI50 ([5]; read-out: GI50): 3.4 nM
GI50 ([5]; read-out: pGI50 (converted)): 3.39 nM
GI50 [6]: 4.9 nM
GI50 [7]: 4.37 nM
GI50 [8]: 44.7 nM
GI50 ([10]; read-out: GI50): 20 nM
GI50 ([10]; read-out: pGI50 (converted)): 19.9 nM
GI50 [12]: 148 nM
GI50 ([13]; read-out: GI50): 6.1 nM
GI50 ([13]; read-out: pGI50 (converted)): 6.17 nM
GI50 [14]: 56.2 nM
GI50 [15]: 955 nM
GI50 [16]: 91.2 nM
GI50 ([21]; read-out: GI50): 2.9 nM
GI50 ([21]; read-out: pGI50 (converted)): 2.88 nM
inhibition [22]: Active
GI50 [23]: 105 nM
GI50 [25]: 70.8 nM
GI50 ([27]; read-out: GI50): 3.2 nM
GI50 ([27]; read-out: pGI50 (converted)): 3.16 nM
GI50 ([31]; read-out: GI50): 15 nM
GI50 ([31]; read-out: pGI50 (converted)): 15.5 nM
GI50 [32]: 13.5 nM
GI50 [33]: 45.7 nM
SMILES: COc1cc2c(ccc3c4c(=O)oc5cc(OC(=O)[C@@H](N)C(C)C)c(OC)cc5c4n(C)c23)cc1OC(=O)[C@@H](N)C(C)C.O=C(O)C(F)(F)F.O=C(O)C(F)(F)F
GI50 [1]: 1000 nM
GI50 [3]: 8.32 nM
GI50 [4]: 57.5 nM
GI50 [9]: 8.32 nM
GI50 [11]: 4.17 nM
GI50 [17]: 138 nM
GI50 [18]: 1000 nM
GI50 [19]: 4.37 nM
GI50 ([20]; read-out: GI50): 2.5 nM
GI50 ([20]; read-out: pGI50 (converted)): 2.51 nM
GI50 [24]: 38 nM
Activity [26]: Non-Toxic
Activity [28]: Active
GI50 [29]: 282 nM
GI50 [30]: 12.9 nM
